From patent publication US20240384268A1, “Oligonucleotides” (Hudson Institute of Medical Research, priority 2021, published 2024)
In the oligonucleotide strings, read from the 5' end, every base follows the letter of its sugar. An asterisk marks phosphorothioate; unmarked linkages are phosphodiester. Other units and linkages are bracketed, terminal groups are in braces. A string of capitals states the bases alone. d = 2'-deoxy (DNA); m = 2'-O-methyl

Tests used:
Assay type in all cases: cell-based
TLR8 = molecular target: T1, TLR8 (Homo sapiens, UniProt Q9NR97); test: HEK-TLR8 NF-κB-luciferase reporter, R848 or Motolimod stimulation (potentiation or inhibition); parameters: expressed in transfected cells; host or cells: 293XLhTLR8 (HEK293); conditions: HEK-TLR8; 500 nM ASO ~30 min; R848 overnight
T1 sequence (Q9NR97 27-1041): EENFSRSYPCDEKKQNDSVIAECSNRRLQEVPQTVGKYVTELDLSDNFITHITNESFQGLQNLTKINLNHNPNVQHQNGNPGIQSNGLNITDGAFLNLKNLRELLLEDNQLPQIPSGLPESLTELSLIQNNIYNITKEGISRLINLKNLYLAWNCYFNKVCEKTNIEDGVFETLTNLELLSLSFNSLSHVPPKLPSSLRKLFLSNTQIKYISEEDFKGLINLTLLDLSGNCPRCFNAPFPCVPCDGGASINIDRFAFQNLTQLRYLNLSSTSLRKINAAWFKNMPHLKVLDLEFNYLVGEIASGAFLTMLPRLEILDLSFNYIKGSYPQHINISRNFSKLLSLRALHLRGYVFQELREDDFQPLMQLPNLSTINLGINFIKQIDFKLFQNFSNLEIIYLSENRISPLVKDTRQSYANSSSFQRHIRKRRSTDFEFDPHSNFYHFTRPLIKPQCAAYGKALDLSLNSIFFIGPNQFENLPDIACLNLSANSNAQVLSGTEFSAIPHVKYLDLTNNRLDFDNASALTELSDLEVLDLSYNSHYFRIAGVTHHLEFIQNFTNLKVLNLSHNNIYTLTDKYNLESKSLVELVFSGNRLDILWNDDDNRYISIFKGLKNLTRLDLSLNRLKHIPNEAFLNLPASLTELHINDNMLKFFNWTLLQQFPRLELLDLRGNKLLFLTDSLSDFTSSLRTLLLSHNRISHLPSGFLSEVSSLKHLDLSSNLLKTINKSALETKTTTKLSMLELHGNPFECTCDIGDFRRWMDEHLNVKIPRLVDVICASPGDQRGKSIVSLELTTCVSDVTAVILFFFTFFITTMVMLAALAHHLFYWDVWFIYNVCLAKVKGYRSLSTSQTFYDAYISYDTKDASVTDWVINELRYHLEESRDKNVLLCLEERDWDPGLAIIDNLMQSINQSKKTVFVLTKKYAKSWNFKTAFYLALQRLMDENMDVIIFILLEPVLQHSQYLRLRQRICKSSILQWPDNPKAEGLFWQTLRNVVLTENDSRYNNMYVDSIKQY
Protocol: (§1) In such examples, potentiation of TLR8 activity can be identified by observation of an overall increased TLR8 response of the cell population, or a higher proportion of cells having TLR8-positive activity as compared to a negative control condition in which cells are treated with TLR8 agonist in the absence of the oligonucleotide (or in the presence of an appropriate control non-potentiating agent). In one example, 293XLhTLR8 (referred to as HEK-TLR8) cells are transfected with pNF-κB-Luc4 reporter, incubated with an oligonucleotide, and then stimulated with R848. TLR8 activity can be determined by a luciferase assay, which measures activated NF-κB by luminescence. TLR8 activity can also be analysed by measuring cytokine levels, for example by ELISA.
as §1, with “inhibition” for “potentiation”, “decreased” for “increased”, “lower” for “higher”, “positive” for “negative”, “inhibitory” for “non-potentiating”
(§2) For cGAS stimulations, cells were treated for indicated duration with ASOs, prior to transfection with ISD70 (human cells) or ISD45 (mouse cells) (the ASOs were not washed off prior to ISD transfection unless otherwise indicated). The cGAS ligands ISD45 (Stetson and Medzhitov, 2006) and ISD70 (also known as VACV-70 (Unterholzner et al., 2010)) (Table 1) were resuspended as follows: 5 1d of sense and 5 μl of antisense strands at 10 μg/μl were added to 90 μl PBS under sterile conditions, heated at 75° C. for 30 min, prior to letting cool down at room temperature and aliquoting (stock at 1 μg/1 l). The ISDs were transfected at a concentration of […] at a ratio of 1 μg:1 μl with Lipofectamine 2000 in Opti-MEM (Thermo Fisher Scientific). HEK-TLR3, HEK-TLR7 and […] were treated with indicated concentration of ASOs for 20-50 min, prior to stimulation with poly(I:C) (Invivogen), R848 (Invivogen), Motolimod (MedChemExpress) and the Class B CpG oligonucleotides ODN 2006 (synthesised by IDT and resuspended in RNase-free TE buffer [Table 1]), respectively. The TLR2/1 agonist PAM3CSK4 (Invivogen), the TLR4 agonist lipopolysaccharide (Invivogen), the Class B CpG oligonucleotides ODN 1826 (synthesised by IDT and resuspended in RNase-free TE buffer), the mouse Sting agonist DMXAA (Cayman) and the human STING agonist (compound #3 from (Raanjulu et al., 2018), referred to as GSK herein—kind gift from Cancer Therapeutics CRC, Australia) were used at indicated concentrations. Aspirin (Sigma—A2093) was resuspended in pure medium to 10 mM, filter sterilised and added to the cells at 2 mM final. All ASOs were synthesised by Integrated DNA Technologies (IDT), and resuspended in RNase-free TE buffer, pH 8.0 (Thermo Fisher Scientific). Cell viability was assessed by adding 1× fresh resazurin solution to the wells (10λ solution made up with 7 mg resazurin [Sigma—R7017] dissolved in 3.5 ml PBS, sterile filtered at […]) for 4 h, prior to reading at with a Fluostar OPTIMA (BMG LABTECH) plate-reader (fluorescence: Excitation 535 nm, Emission 590); wells with medium only and 1× resazurin were used as blanks.

cGAS = cGAS (Homo sapiens, UniProt Q8N884); test: ISD70-driven IP-10 (and IFN-β) production in THP-1 cells, ELISA; parameters: endogenous in cells; host or cells: THP-1 (undifferentiated); conditions: THP-1; 2′OMe or PS oligos, 100-250 nM, pre-treatment as in figure legends; ISD70 2.5 μg/ml
Protocol: The ability of an oligonucleotide to inhibit cGAS activity can, for example, be analysed by incubating cells which express cGAS with an oligonucleotide, then stimulating said cells with a cGAS agonist (e.g., 70-bp interferon stimulating DNA or ISD70; 45-bp interferon stimulating DNA or ISD45), and analysing the overall cGAS response in the cell population, or analysing the proportion of cells having cGAS-positive activity after a defined period of time.
In such examples, inhibition of cGAS activity can be identified by observation of an overall decreased cGAS response of the cell population, or a lower proportion of cells having cGAS-positive activity as compared to positive control condition in which cells are treated with cGAS agonist in the absence of the oligonucleotide (or in the presence of an appropriate control inhibitory agent). In one example, THP-1 or HT-29 cells are transfected with ISD70 and incubated with an oligonucleotide. cGAS activity can then be determined by cytokine (e.g., IP-10 and/or IFNβ) expression (e.g., gene and/or protein expression) and/or secretion levels, such as by ELISA. A similar assay can be performed with LL171 cells transfected with ISD45. […] By way of example, cGAS enzymatic activity may be assessed in vitro using recombinant cGAS and then measuring activity thereof by way of a cGAMP ELISA.
as §2

human TLR9 = molecular target: T2, human TLR9 (Homo sapiens, UniProt Q9NR96); test: HEK-TLR9 NF-κB-luciferase reporter, ODN2006 stimulation; conditions: HEK-TLR9; 500 nM 2′OMe or PS oligos; 200 nM ODN2006
T2 construct: HA; host or cells: 293XL-hTLR9-HA (HEK293)
T2 sequence (Q9NR96 26-1032): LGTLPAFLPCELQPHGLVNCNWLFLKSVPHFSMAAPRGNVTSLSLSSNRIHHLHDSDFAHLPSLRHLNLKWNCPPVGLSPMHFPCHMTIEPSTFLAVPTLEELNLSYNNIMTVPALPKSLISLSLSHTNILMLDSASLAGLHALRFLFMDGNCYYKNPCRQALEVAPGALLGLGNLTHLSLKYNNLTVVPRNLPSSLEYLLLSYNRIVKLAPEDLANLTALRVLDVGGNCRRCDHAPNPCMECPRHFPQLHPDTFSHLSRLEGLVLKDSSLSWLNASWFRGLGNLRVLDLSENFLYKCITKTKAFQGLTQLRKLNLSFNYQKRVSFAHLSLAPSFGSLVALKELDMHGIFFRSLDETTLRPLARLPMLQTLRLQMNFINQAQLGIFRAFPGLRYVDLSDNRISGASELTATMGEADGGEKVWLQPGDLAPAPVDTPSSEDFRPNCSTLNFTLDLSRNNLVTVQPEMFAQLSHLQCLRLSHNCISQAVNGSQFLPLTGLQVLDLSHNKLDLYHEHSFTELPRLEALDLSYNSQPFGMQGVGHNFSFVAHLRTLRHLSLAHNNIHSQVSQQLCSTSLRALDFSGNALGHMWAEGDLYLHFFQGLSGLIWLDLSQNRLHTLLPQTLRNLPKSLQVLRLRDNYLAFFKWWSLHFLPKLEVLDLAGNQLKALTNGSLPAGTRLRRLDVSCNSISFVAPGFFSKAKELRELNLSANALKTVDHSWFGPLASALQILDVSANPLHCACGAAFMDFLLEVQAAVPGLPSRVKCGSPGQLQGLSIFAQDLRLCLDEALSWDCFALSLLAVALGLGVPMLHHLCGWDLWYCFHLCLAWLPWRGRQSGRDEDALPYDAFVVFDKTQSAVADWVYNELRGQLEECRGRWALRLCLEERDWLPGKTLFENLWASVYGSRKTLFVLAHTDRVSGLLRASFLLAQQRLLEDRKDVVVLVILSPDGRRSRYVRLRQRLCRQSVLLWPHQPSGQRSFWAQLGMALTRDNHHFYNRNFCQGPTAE
Protocol: In such examples, inhibition of TLR9 activity can be identified by observation of an overall decreased TLR9 response of the cell population, or a lower proportion of cells having TLR9-positive activity as compared to positive control condition in which cells are treated with TLR9 agonist in the absence of the oligonucleotide (or in the presence of an appropriate control inhibitory agent). In one example, HEK cells are transfected with TLR9 and a NF-κB reporter and incubated with an oligonucleotide and then stimulated with a TLR9 agonist. TLR9 activity can then be determined by a luciferase assay. TLR9 activity can also be analysed by measuring cytokine levels (e.g., IFN, IL-6, TNF and IL-12), for example by ELISA.
as §2
Following transfection, the cells were collected from the 6-wells and aliquoted into 96-wells, just before ASO and overnight TLR stimulation (as above described). Similarly, the LL171 cells expressing and ISRE-Luc reporter were treated overnight. The next day, the cells were lysed in 40 μl (for a 96-well plate) of 1× Glo Lysis buffer (Promega) for 10 min at room temperature. […] was then subjected to firefly luciferase assay using 40 μl of Luciferase Assay Reagent (Promega). Luminescence was quantified with a Fluostar OPTIMA (BMG LABTECH) luminometer.

cGAS, sequence (Q8N884 whole entry): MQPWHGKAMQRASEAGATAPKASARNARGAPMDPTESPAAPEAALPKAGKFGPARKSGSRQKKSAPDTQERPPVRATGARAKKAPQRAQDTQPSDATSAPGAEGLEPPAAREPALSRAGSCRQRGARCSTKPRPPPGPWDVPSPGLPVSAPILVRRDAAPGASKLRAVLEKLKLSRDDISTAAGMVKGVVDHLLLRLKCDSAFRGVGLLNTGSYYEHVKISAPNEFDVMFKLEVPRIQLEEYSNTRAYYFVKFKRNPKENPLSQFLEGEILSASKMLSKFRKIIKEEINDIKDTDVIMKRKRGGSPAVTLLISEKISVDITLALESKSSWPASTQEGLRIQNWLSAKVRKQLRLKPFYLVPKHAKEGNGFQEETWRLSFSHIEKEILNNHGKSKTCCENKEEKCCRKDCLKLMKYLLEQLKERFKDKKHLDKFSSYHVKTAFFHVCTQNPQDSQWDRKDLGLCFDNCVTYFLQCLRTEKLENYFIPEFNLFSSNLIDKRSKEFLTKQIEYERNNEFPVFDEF

With “mC*mU*mU*mC*mG*T*G*G*G*G*T*C*C*T*T*mU*mU*mC*mA*mC (CUUCGTGGGGTCCTTUUCAC; antisense; sugars from the 5' end m5 d10 m5, all phosphorothioate, methylation of C not given here) [[HPRT]660]” the “TLR8 potentiation of R848 sensing, 20-mer ASOs (in words)” value (TLR8) was “strong potentiator of TLR8 sensing”.

With “mG*mC*mG*mG*mU*A*T*C*C*A*T*C*A*G*A*mU*mA*mU*mC*mG (mG*mC*mG*mG*mU*dA*dT*dC*dC*dA*dT*dC*dA*dG*dA*mU*mA*mU*mC*mG; antisense) [C2-ASO2-B]” the “inhibition of ISD70-driven IP-10 production (in words)” value (cGAS) was “significantly less inhibitory than C2-ASO2-A”.

With “mGmCmGmGmUmAmUmCmCmAmUmGmUmCmCmCmAmGmGmC (GCGGUAUCCAUGUCCCAGGC; all 2'-O-methyl, backbone not given here) [fully 2′Ome modified version of C2Mut1]” the “inhibition of ISD70-driven IP-10 production (in words)” value (cGAS) was “strongly blunting of cGAS activation”.

In the case of “mU*mU*mC*mU*mG*G*G*G*A*C*T*T*C*C*A*mG*mU*mU*mU*mA (mU*mU*mC*mU*mG*dG*dG*dG*dA*dC*dT*dT*dC*dC*dA*mG*mU*mU*mU*mA; antisense) [ASO9]”, the “inhibition of TLR9 sensing of ODN2006 (in words)” value (human TLR9) is reported as “significantly inhibited TLR9 sensing of ODN2006”.
